Where two headings read alike, the source gives them in different places.
Legend:
[1] = biological target: T1, NAT (SAM:nocardicin 3-ACP transferase) (Nocardia uniformis, UniProt Q9RAH6); test: 3-ACP transfer, LC-MS; format: biochemical; details: SAM as co-substrate; very low yield
T1 sequence (Q9RAH6 1-301): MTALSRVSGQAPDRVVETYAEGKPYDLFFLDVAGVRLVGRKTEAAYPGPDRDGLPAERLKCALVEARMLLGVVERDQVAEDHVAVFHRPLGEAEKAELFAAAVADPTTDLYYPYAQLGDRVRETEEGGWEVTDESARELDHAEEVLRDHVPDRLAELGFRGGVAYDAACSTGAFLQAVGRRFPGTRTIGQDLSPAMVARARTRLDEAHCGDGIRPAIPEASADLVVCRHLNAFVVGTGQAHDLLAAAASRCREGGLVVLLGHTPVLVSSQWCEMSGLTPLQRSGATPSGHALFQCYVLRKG

[2] = biological target: T1, NAT (SAM:nocardicin 3-ACP transferase); test: thermal shift assay; format: binding; details: binds to a similar extent as SAM; no turnover with nocardicin E
CntL = CntL (Staphylococcus aureus, UniProt A0A0H3JXA8); test: thermal shift assay; format: binding
CntL, sequence (A0A0H3JXA8 whole entry): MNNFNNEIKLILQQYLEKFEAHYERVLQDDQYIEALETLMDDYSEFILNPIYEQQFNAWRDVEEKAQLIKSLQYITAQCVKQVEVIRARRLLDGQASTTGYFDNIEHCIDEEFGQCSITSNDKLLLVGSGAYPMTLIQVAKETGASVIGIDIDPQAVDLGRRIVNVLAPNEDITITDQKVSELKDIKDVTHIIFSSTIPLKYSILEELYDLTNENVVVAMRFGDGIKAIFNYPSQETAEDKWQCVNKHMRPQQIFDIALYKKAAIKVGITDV

[3] = biological target: T1, NAT (SAM:nocardicin 3-ACP transferase); test: thermal shift assay; format: binding; details: further addition to enzyme with nocardicin E (2)

CC1(C)S[C@@H]2[C@H](NC(=O)[C@H](N)c3ccc(O)cc3)C(=O)N2[C@H]1C(=O)O [amoxicillin]
3-ACP transfer, LC-MS [1]: NAT accepted both of them, to produce the 3-ACP-β-lactam products

C[S+](CCCC(=O)[O-])C[C@H]1O[C@@H](n2cnc3c(N)ncnc32)[C@H](O)[C@@H]1O (stereo partly drawn) [deamino-SAM]
melting temperature [2]: deamino-SAM can bind to the enzyme to a similar extent as SAM

N[C@H](Cc1c[nH]cn1)C(=O)O [D-histidine]
melting point (CntL; with SAM present, no shift with da-SAM): the melting point increased when CntL was combined with SAM and D-his

C[S+](CC[C@H](N)C(=O)O)C[C@H]1O[C@@H](n2cnc3c(N)ncnc32)[C@H](O)[C@@H]1O (stereo partly drawn) [SAM]
increase in melting temperature [3]: 7 °C
melting point (CntL): da-SAM can bind to the enzyme to the same extent as SAM

CC1=C(C(=O)O)N2C(=O)[C@@H](NC(=O)[C@H](N)c3ccc(O)cc3)[C@H]2SC1 [cefadroxil]
3-ACP transfer, LC-MS [1]: NAT accepted both of them, to produce the 3-ACP-β-lactam products

From paper PMC12985355 (Journal of the American Chemical Society, 2025)
